Source: ChEMBL document CHEMBL3352057, “Novel fluorinated pyrrolo[1,2-a]pyrazine-2,6-dione derivatives: synthesis and anticonvulsant evaluation in animal models of epilepsy” (Bioorg Med Chem, 2014)
Calls of active or inactive are those of the source. The calls are words filed in the database; no cut-off is given here.

What was measured:
Mus musculus [1] = experiment: Anticonvulsant activity in albino CF1 mouse assessed as protection against maximal electroshock-induced seizures at 100 mg/kg, ip measured after 0.25 hr; format: functional, organism-based; design: dose 100 mg/kg
Rattus norvegicus [2] = experiment: Anticonvulsant activity in Sprague-Dawley rat assessed as protection against maximal electroshock-induced seizures at 30 mg/kg, ip measured after 0.25 hr; format: functional, organism-based; design: dose 30 mg/kg
Mus musculus [3] = experiment: Neurotoxicity in 32 mA current-induced seizure albino CF1 mouse model at 100 mg/kg, ip measured after 0.25 hr; format: toxicity, organism-based; design: dose 100 mg/kg, route intraperitoneal; conditions: in vivo
Rattus norvegicus [4] = experiment: Anticonvulsant activity in Sprague-Dawley rat assessed as protection against maximal electroshock-induced seizures at 30 mg/kg, ip measured after 0.5 hr; format: functional, organism-based; design: dose 30 mg/kg
Mus musculus [5] = experiment: Neurotoxicity in albino CF1 mouse at 100 mg/kg, ip measured after 0.5 hr; format: toxicity, organism-based; design: dose 100 mg/kg, route intraperitoneal; conditions: in vivo
Mus musculus [6] = experiment: Neurotoxicity in albino CF1 mouse at 100 mg/kg, ip measured after 1 hr; format: toxicity, organism-based; design: dose 100 mg/kg, route intraperitoneal; conditions: in vivo
Mus musculus [7] = experiment: Anticonvulsant activity in albino CF1 mouse assessed as protection against 32 mA current-induced seizures at 100 mg/kg, ip measured after 2 hrs; format: functional, organism-based; design: dose 100 mg/kg
Mus musculus [8] = experiment: Anticonvulsant activity in albino CF1 mouse assessed as protection against subcutaneous metrazol-induced seizures at 100 mg/kg, ip measured after 0.25 hr; format: functional, organism-based; design: dose 100 mg/kg
Rattus norvegicus [9] = experiment: Anticonvulsant activity in Sprague-Dawley rat assessed as protection against maximal electroshock-induced seizures at 30 mg/kg, ip measured after 1 hr; format: functional, organism-based; design: dose 30 mg/kg
Mus musculus [10] = experiment: Anticonvulsant activity in albino CF1 mouse assessed as protection against 32 mA current-induced seizures at 100 mg/kg, ip measured after 0.25 hr; format: functional, organism-based; design: dose 100 mg/kg
Mus musculus [11] = experiment: Neurotoxicity in 32 mA current-induced seizure albino CF1 mouse model at 100 mg/kg, ip measured after 1 hr; format: toxicity, organism-based; design: dose 100 mg/kg, route intraperitoneal; conditions: in vivo
Rattus norvegicus [12] = experiment: Anticonvulsant activity in Sprague-Dawley rat assessed as protection against maximal electroshock-induced seizures at 30 mg/kg, ip measured after 2 hrs; format: functional, organism-based; design: dose 30 mg/kg
Mus musculus [13] = experiment: Anticonvulsant activity in albino CF1 mouse assessed as protection against subcutaneous metrazol-induced seizures at 100 mg/kg, ip measured after 0.5 hr; format: functional, organism-based; design: dose 100 mg/kg
Mus musculus [14] = experiment: Anticonvulsant activity in albino CF1 mouse assessed as protection against subcutaneous metrazol-induced seizures at 100 mg/kg, ip measured after 4 hrs; format: functional, organism-based; design: dose 100 mg/kg
Mus musculus [15] = experiment: Neurotoxicity in 32 mA current-induced seizure albino CF1 mouse model at 100 mg/kg, ip measured after 2 hrs; format: toxicity, organism-based; design: dose 100 mg/kg, route intraperitoneal; conditions: in vivo
Mus musculus [16] = experiment: Anticonvulsant activity in albino CF1 mouse assessed as protection against maximal electroshock-induced seizures at 100 mg/kg, ip measured after 4 hrs; format: functional, organism-based; design: dose 100 mg/kg
Mus musculus [17] = experiment: Anticonvulsant activity in albino CF1 mouse assessed as protection against 32 mA current-induced seizures at 100 mg/kg, ip measured after 1 hr; format: functional, organism-based; design: dose 100 mg/kg
Rattus norvegicus [18] = experiment: Neurotoxicity in MES Sprague-Dawley rat model at 30 mg/kg, ip measured after 1 hr; format: toxicity, organism-based; design: dose 30 mg/kg, route intraperitoneal; conditions: in vivo
Mus musculus [19] = experiment: Neurotoxicity in albino CF1 mouse at 100 mg/kg, ip measured after 4 hrs; format: toxicity, organism-based; design: dose 100 mg/kg, route intraperitoneal; conditions: in vivo
Rattus norvegicus [20] = experiment: Neurotoxicity in MES Sprague-Dawley rat model at 30 mg/kg, ip measured after 4 hrs; format: toxicity, organism-based; design: dose 30 mg/kg, route intraperitoneal; conditions: in vivo
Rattus norvegicus [21] = experiment: Anticonvulsant activity in Sprague-Dawley rat assessed as protection against maximal electroshock-induced seizures at 30 mg/kg, ip measured after 4 hrs; format: functional, organism-based; design: dose 30 mg/kg
Mus musculus [22] = experiment: Anticonvulsant activity in albino CF1 mouse assessed as protection against 32 mA current-induced seizures at 100 mg/kg, ip measured after 4 hrs; format: functional, organism-based; design: dose 100 mg/kg
Rattus norvegicus [23] = experiment: Neurotoxicity in MES Sprague-Dawley rat model at 30 mg/kg, ip measured after 2 hrs; format: toxicity, organism-based; design: dose 30 mg/kg, route intraperitoneal; conditions: in vivo
Mus musculus [24] = experiment: Anticonvulsant activity in albino CF1 mouse assessed as protection against maximal electroshock-induced seizures at 100 mg/kg, ip measured after 1 hr; format: functional, organism-based; design: dose 100 mg/kg
Mus musculus [25] = experiment: Neurotoxicity in albino CF1 mouse at 100 mg/kg, ip measured after 0.25 hr; format: toxicity, organism-based; design: dose 100 mg/kg, route intraperitoneal; conditions: in vivo
Mus musculus [26] = experiment: Neurotoxicity in 32 mA current-induced seizure albino CF1 mouse model at 100 mg/kg, ip measured after 4 hrs; format: toxicity, organism-based; design: dose 100 mg/kg, route intraperitoneal; conditions: in vivo
Mus musculus [27] = experiment: Anticonvulsant activity in albino CF1 mouse assessed as protection against maximal electroshock-induced seizures at 100 mg/kg, ip measured after 0.5 hr; format: functional, organism-based; design: dose 100 mg/kg
Rattus norvegicus [28] = experiment: Neurotoxicity in MES Sprague-Dawley rat model at 30 mg/kg, ip measured after 0.25 hr; format: toxicity, organism-based; design: dose 30 mg/kg, route intraperitoneal; conditions: in vivo
Mus musculus [29] = experiment: Anticonvulsant activity in albino CF1 mouse assessed as protection against 32 mA current-induced seizures at 100 mg/kg, ip measured after 0.5 hr; format: functional, organism-based; design: dose 100 mg/kg
Rattus norvegicus [30] = experiment: Neurotoxicity in MES Sprague-Dawley rat model at 30 mg/kg, ip measured after 0.5 hr; format: toxicity, organism-based; design: dose 30 mg/kg, route intraperitoneal; conditions: in vivo
Mus musculus [31] = experiment: Neurotoxicity in 32 mA current-induced seizure albino CF1 mouse model at 100 mg/kg, ip measured after 0.5 hr; format: toxicity, organism-based; design: dose 100 mg/kg, route intraperitoneal; conditions: in vivo
Mus musculus [32] = experiment: Anticonvulsant activity in albino CF1 mouse assessed as protection against subcutaneous metrazol-induced seizures at 100 mg/kg, ip measured after 1 hr; format: functional, organism-based; design: dose 100 mg/kg
Rattus norvegicus [33] = experiment: Anticonvulsant activity in Sprague-Dawley rat assessed as protection against maximal electroshock-induced seizures at 30 mg/kg, po measured after 1 hr; format: functional, organism-based; design: dose 30 mg/kg
Rattus norvegicus [34] = experiment: Neurotoxicity in MES Sprague-Dawley rat model at 30 mg/kg, po measured after 0.25 hr; format: toxicity, organism-based; design: dose 30 mg/kg, route oral; conditions: in vivo
Rattus norvegicus [35] = experiment: Neurotoxicity in MES Sprague-Dawley rat model at 30 mg/kg, po measured after 2 hrs; format: toxicity, organism-based; design: dose 30 mg/kg, route oral; conditions: in vivo
Rattus norvegicus [36] = experiment: Neurotoxicity in MES Sprague-Dawley rat model at 30 mg/kg, po measured after 0.5 hr; format: toxicity, organism-based; design: dose 30 mg/kg, route oral; conditions: in vivo
Rattus norvegicus [37] = experiment: Anticonvulsant activity in Sprague-Dawley rat assessed as protection against maximal electroshock-induced seizures at 30 mg/kg, po measured after 2 hrs; format: functional, organism-based; design: dose 30 mg/kg
Rattus norvegicus [38] = experiment: Neurotoxicity in MES Sprague-Dawley rat model at 30 mg/kg, po measured after 1 hr; format: toxicity, organism-based; design: dose 30 mg/kg, route oral; conditions: in vivo
Rattus norvegicus [39] = experiment: Anticonvulsant activity in Sprague-Dawley rat assessed as protection against maximal electroshock-induced seizures at 30 mg/kg, po measured after 0.5 hr; format: functional, organism-based; design: dose 30 mg/kg
Rattus norvegicus [40] = experiment: Neurotoxicity in MES Sprague-Dawley rat model at 30 mg/kg, po measured after 4 hrs; format: toxicity, organism-based; design: dose 30 mg/kg, route oral; conditions: in vivo
Rattus norvegicus [41] = experiment: Anticonvulsant activity in Sprague-Dawley rat assessed as protection against maximal electroshock-induced seizures at 30 mg/kg, po measured after 4 hrs; format: functional, organism-based; design: dose 30 mg/kg
Rattus norvegicus [42] = experiment: Anticonvulsant activity in Sprague-Dawley rat assessed as protection against maximal electroshock-induced seizures at 30 mg/kg, po measured after 0.25 hr; format: functional, organism-based; design: dose 30 mg/kg

SMILES | Activity (Mus musculus [1]) | Activity (Mus musculus [3]) | Activity (Mus musculus [5]) | Activity (Mus musculus [6]) | Activity (Mus musculus [7]) | Activity (Mus musculus [8]) | Activity (Mus musculus [10]) | Activity (Mus musculus [11]) | Activity (Mus musculus [13]) | Activity (Mus musculus [14]) | Activity (Mus musculus [15]) | Activity (Mus musculus [16]) | Activity (Mus musculus [17]) | Activity (Mus musculus [19]) | Activity (Mus musculus [22]) | Activity (Mus musculus [24]) | Activity (Mus musculus [25]) | Activity (Mus musculus [26]) | Activity (Mus musculus [27]) | Activity (Mus musculus [29]) | other results
O=C1NC(=O)[C@@H]2CCCCN2[C@H]1c1cccc(C(F)(F)F)c1 | inactive | Non-toxic | Non-toxic | Non-toxic | inactive | inactive | Active | Non-toxic | inactive | inactive | Non-toxic | inactive | inactive | Non-toxic | inactive | inactive | Non-toxic | Non-toxic | inactive | Active | Activity (Rattus norvegicus [2]): inactive; Activity (Rattus norvegicus [4]): inactive; Activity (Rattus norvegicus [9]): inactive; Activity (Rattus norvegicus [12]): inactive; Activity (Rattus norvegicus [18]): Non-toxic; Activity (Rattus norvegicus [20]): Non-toxic; Activity (Rattus norvegicus [21]): inactive; Activity (Rattus norvegicus [23]): Non-toxic; Activity (Rattus norvegicus [28]): Non-toxic; Activity (Rattus norvegicus [30]): Non-toxic; Activity (Mus musculus [31]): Non-toxic; Activity (Mus musculus [32]): inactive
O=C1NC(=O)[C@@H]2CCCN2[C@H]1c1cccc(F)c1 | Active | Non-toxic | Non-toxic | Non-toxic | inactive | Active | Active | Non-toxic | Active | inactive | Non-toxic | inactive | inactive | Non-toxic | inactive | inactive | Non-toxic | Non-toxic | Active | Active | Activity (Rattus norvegicus [33]): inactive; Activity (Rattus norvegicus [34]): Non-toxic; Activity (Rattus norvegicus [35]): Non-toxic; Activity (Rattus norvegicus [36]): Non-toxic; Activity (Rattus norvegicus [37]): inactive; Activity (Rattus norvegicus [38]): Non-toxic; Activity (Rattus norvegicus [39]): inactive; Activity (Rattus norvegicus [40]): Non-toxic; Activity (Rattus norvegicus [41]): inactive; Activity (Rattus norvegicus [42]): inactive; Activity (Mus musculus [31]): Non-toxic; Activity (Mus musculus [32]): inactive
